Measurements reported in patent US20240148821A1, “PHARMACEUTICAL USE OF CYCLIC PEPTIDE COMPOUND” (CHUGAI SEIYAKU KABUSHIKI KAISHA, priority 2021, published 2024).
Numbered stars: 1 amine (or outer) side, 2 acyl side, 3 side chain; on linkers, the order of the positions; unused ones are H or OH. Bridge positions count the residues as written; N and C are the ends. Square brackets hold non-standard residues; d marks the D form. Peptide text beside a SMILES is read from it. * marks the point of attachment. hPhe(3,5-F2-4-CF3) = N[C@@H](CCc1cc(F)c(C(F)(F)F)c(F)c1)C(=O)O; hPhe(3-Cl-4-CF3) = N[C@@H](CCc1ccc(C(F)(F)F)c(Cl)c1)C(=O)O; hPhe(3-F,4-CF3) = N[C@@H](CCc1ccc(C(F)(F)F)c(F)c1)C(=O)O; X7 = O=C([C@@H]1C[C@H](N2CCC(F)(F)CC2)CN1[*:1])[*:2]; NPrAsp = CCCN([C@@H](CC(=O)[*:3])C(=O)[*:2])[*:1]; NEtPhe(4-Me) = CCN[C@@H](Cc1ccc(C)cc1)C(=O)O; NMePhe(4-Me) = CN[C@@H](Cc1ccc(C)cc1)C(=O)O; NMeGly(cPent) = CN[C@H](C(=O)O)C1CCCC1; NMeAla(cPr) = CN[C@@H](CC1CC1)C(=O)O; NMeGly(cBu) = CN[C@H](C(=O)O)C1CCC1; NMeCha = CN[C@@H](CC1CCCCC1)C(=O)O; Hyp = O=C(O)[C@@H]1C[C@@H](O)CN1; NEtLeu = CCN[C@@H](CC(C)C)C(=O)O; NMeChg = CN[C@H](C(=O)O)C1CCCCC1; NMeI = CC[C@H](C)[C@H](NC)C(=O)O; NMeD = CN[C@@H](CC(=O)O)C(=O)O; NMeL = CN[C@@H](CC(C)C)C(=O)O; NMeNva = CCC[C@H](NC)C(=O)O; NMeV = CN[C@H](C(=O)O)C(C)C; Trifluoroethyl = FC(F)(F)C*; d(β3hA) = C[C@@H](N)CC(=O)O; Azetidin(1-yl) = C1CN(*)C1; NMeS = CN[C@@H](CO)C(=O)O; Morpholide = C1CN(*)CCO1; NMeA = CN[C@@H](C)C(=O)O; Nphe = O=C(O)CNCc1ccccc1; Piperidide = C1CCN(*)CC1; dNMeA = CN[C@H](C)C(=O)O; Ac5c = NC1(C(=O)O)CCCC1; Aze = O=C(O)[C@@H]1CCN1; Isopentyl = CC(C)CC*; Sar = CNCC(=O)O

Columns and labels:
[1] = molecular target: protein-protein interaction between Kras and SOS1 (biotin-tagged human Kras loaded with GDP, His-tagged human SOS1) (Homo sapiens (Human), UniProt P01116, G12D); test: Protein-protein interaction inhibition between Kras and SOS1 (KrasG12D-SOS PPI) using AlphaScreen; format: biochemical; conditions: AlphaScreen; biotin-tagged human Kras loaded with GDP, His-tagged human SOS1; read-out: KRAS G12D-SOS PPI IC50;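 note: kras produced in E. coli, Ni-coupled donor beads and streptavidin acceptor beads, excitation 680 nm with emission detected at 520–620 nm via singlet oxygen transfer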
[2] = test system: Human pancreatic cancer cell line AsPC-1 (G12D mutation Kras); test: AsPC-1 cell growth inhibition (AsPC-1 CGI); format: cell-based; conditions: read-out: AsPC-1 cell growth inhibition, 50% growth inhibitory concentration (IC50 value); 96 hours, CellTiter-Glo, values classified in ranges

Row | Structure (SMILES) | IC50 [1] [nM] | IC50 [2] [nM]
1 | CCC[C@H]1C(=O)N[C@@H]([C@@H](C)CC)C(=O)N(C)[C@@H](C)C(=O)N2CC[C@H]2C(=O)N(C)[C@@H](CC2CCCCC2)C(=O)N(C)CC(=O)N[C@@H](CCc2ccc(C(F)(F)F)c(Cl)c2)C(=O)N2CCC[C@H]2C(=O)NC2(CCCC2)C(=O)N(C)[C@@H]([C@@H](C)CC)C(=O)N(C)[C@H](C(=O)N2CCCCC2)CC(=O)N1C [Compound 1132] ([NMeNva]I[NMeA][Aze][NMeCha][Sar][hPhe(3-Cl-4-CF3)]P[Ac5c][NMeI][NMeD]-Piperidide; lactam N-11) | 1.3 | ≤ 20
2 | CC[C@H](C)[C@@H]1NC(=O)[C@H](CC(C)C)N(C)C(=O)C[C@@H](C(=O)N2CCCCC2)N(C)C(=O)[C@H]([C@@H](C)CC)N(C)C(=O)C2(CCCC2)NC(=O)[C@@H]2CCCN2C(=O)[C@H](CCc2ccc(C(F)(F)F)c(F)c2)NC(=O)CN(C)C(=O)[C@H](Cc2ccc(C)cc2)N(C)C(=O)[C@@H]2CCN2C(=O)[C@H](C)N(C)C1=O [Compound 678] ([NMeL]I[NMeA][Aze][NMePhe(4-Me)][Sar][hPhe(3-F,4-CF3)]P[Ac5c][NMeI][NMeD]-Piperidide; lactam N-11) | 1.7 | ≤ 20
3 | CC(C)C[C@H]1C(=O)N[C@@H](COCC(F)(F)F)C(=O)N(C)[C@@H](C)C(=O)N2CC[C@H]2C(=O)N(C)[C@@H](CC2CCCCC2)C(=O)N(C)CC(=O)N[C@@H](CCc2ccc(C(F)(F)F)c(Cl)c2)C(=O)N2CCC[C@H]2C(=O)NC2(CCCC2)C(=O)N(C)[C@@H](C(C)C)C(=O)N(C)[C@H](C(=O)N2CCCCC2)CC(=O)N1C [Compound 304] ([NMeL]S(Trifluoroethyl)[NMeA][Aze][NMeCha][Sar][hPhe(3-Cl-4-CF3)]P[Ac5c][NMeV][NMeD]-Piperidide; lactam N-11) | 87 | > 500
4 | CC[C@H](C)[C@@H]1NC(=O)[C@H](CC(C)C)N(C)C(=O)C[C@@H](C)NC(=O)[C@H](C2CCCC2)N(C)C(=O)C2(CCCC2)NC(=O)[C@@H]2CCCN2C(=O)[C@H](CCc2ccc(C(F)(F)F)c(Cl)c2)NC(=O)[C@@H](C)N(C)C(=O)[C@H](Cc2ccc(C)cc2)N(C)C(=O)[C@@H]2CCN2C(=O)CN(C)C1=O [Compound 1517] (cyclo([Ac5c][NMeGly(cPent)][d(β3hA)][NMeL]I[Sar][Aze][NMePhe(4-Me)][dNMeA][hPhe(3-Cl-4-CF3)]P)) | 49 | > 500
5 | CC[C@H](C)[C@@H]1NC(=O)[C@H](CC(C)C)N(C)C(=O)C[C@@H](C(=O)N2CCC2)N(C)C(=O)[C@H](C2CCCC2)N(C)C(=O)C2(CCCC2)NC(=O)[C@@H]2CCCN2C(=O)[C@H](CCc2cc(F)c(C(F)(F)F)c(F)c2)NC(=O)CN(C)C(=O)[C@H](Cc2ccc(C)cc2)N(CC)C(=O)[C@@H]2CCN2C(=O)[C@H](C)N(C)C1=O [Compound 55] ([NMeL]I[NMeA][Aze][NEtPhe(4-Me)][Sar][hPhe(3,5-F2-4-CF3)]P[Ac5c][NMeGly(cPent)][NMeD]-{Azetidin(1-yl)}; lactam N-11) | 0.77 | ≤ 20
6 | CC[C@H](C)[C@@H]1NC(=O)[C@H](C)N(C)C(=O)C[C@@H](C(=O)N2CCCCC2)N(C)C(=O)[C@H](C(C)C)N(C)C(=O)C2(CCCC2)NC(=O)[C@@H]2C[C@H](N3CCC(F)(F)CC3)CN2C(=O)[C@H](CCc2ccc(C(F)(F)F)c(Cl)c2)NC(=O)CN(C)C(=O)[C@H](CC2CCCCC2)N(C)C(=O)CN(C)C(=O)CN(C)C1=O [Compound 460] ([NMeA]I[Sar][Sar][NMeCha][Sar][hPhe(3-Cl-4-CF3)][X7][Ac5c][NMeV][NMeD]-Piperidide; lactam N-11) | 1 | > 500
7 | CC[C@H](C)[C@@H]1NC(=O)[C@H](CC(C)C)N(C)C(=O)C[C@@H](C(=O)N2CCCCC2)N(C)C(=O)[C@H](CC(C)C)N(C)C(=O)C2(CCCC2)NC(=O)[C@@H]2C[C@@H](O)CN2C(=O)[C@H](CCc2ccc(C(F)(F)F)c(F)c2)NC(=O)CN(C)C(=O)[C@H](CC2CCCCC2)N(C)C(=O)CN(C)C(=O)CN(C)C1=O [Compound 875, (3S,9S,18S,21S,25S,28S,34S,36R)-9-(cyclohexylmethyl)-3-[2-[3-fluoro-4-(trifluoromethyl)phenyl]ethyl]-36-hydroxy-21,28-diisobutyl-7,10,13,16,22,26,29-heptamethyl-18-[(1S)-1-methylpropyl]-25-(piperidine-1-carbonyl)spiro[1,4,7,10,13,16,19,22,26,29,32-undecazabicyclo[32.3.0]heptatriacontane-31,1′-cyclopentane]-2,5,8,11,14,17,20,23,27,30,33-undecone] ([NMeL]I[Sar][Sar][NMeCha][Sar][hPhe(3-F,4-CF3)][Hyp][Ac5c][NMeL][NMeD]-Piperidide; lactam N-11) | 3.1 | > 500
8 | CCCN1C(=O)[C@H](C2CCCC2)N(C)C(=O)C2(CCCC2)NC(=O)[C@@H]2CCCN2C(=O)[C@H](CCc2ccc(C(F)(F)F)c(Cl)c2)NC(=O)CN(C)C(=O)[C@H](C2CCC2)N(C)C(=O)[C@@H]2CCN2C(=O)[C@H](C)N(C)C(=O)[C@H]([C@@H](C)CC)NC(=O)[C@H](CC(C)C)N(C)C(=O)C[C@H]1C(=O)N1CCCCC1 [Compound 524] ([NMeL]I[NMeA][Aze][NMeGly(cBu)][Sar][hPhe(3-Cl-4-CF3)]P[Ac5c][NMeGly(cPent)][NPrAsp]-Piperidide; lactam N-11) | 82 | > 500
9 | CC[C@H](C)[C@@H]1NC(=O)[C@H](C)N(C)C(=O)C[C@@H](C(=O)N2CCCCC2)N(C)C(=O)[C@H](C(C)C)N(C)C(=O)C2(CCCC2)NC(=O)CN(Cc2ccccc2)C(=O)[C@H](CCc2ccc(C(F)(F)F)c(Cl)c2)NC(=O)CN(C)C(=O)[C@H](CC2CCCCC2)N(C)C(=O)CN(C)C(=O)CN(C)C1=O [Compound 1676] ([NMeA]I[Sar][Sar][NMeCha][Sar][hPhe(3-Cl-4-CF3)][Nphe][Ac5c][NMeV][NMeD]-Piperidide; lactam N-11) | 1.6 | > 500
10 | CC[C@H](C)[C@@H]1NC(=O)[C@H](CC(C)C)N(C)C(=O)C[C@@H](C(=O)N2CCOCC2)N(C)C(=O)[C@H]([C@@H](C)CC)N(C)C(=O)C2(CCCC2)NC(=O)[C@@H]2CCCN2C(=O)[C@H](CCc2ccc(C(F)(F)F)c(Cl)c2)NC(=O)CN(C)C(=O)[C@H](CC2CCCCC2)N(C)C(=O)[C@@H]2CCN2C(=O)[C@H](C)N(C)C1=O [Compound 40] ([NMeL]I[NMeA][Aze][NMeCha][Sar][hPhe(3-Cl-4-CF3)]P[Ac5c][NMeI][NMeD]-Morpholide; lactam N-11) | 0.96 | ≤ 20
11 | CC[C@H](C)[C@@H]1NC(=O)[C@H](CC(C)C)N(CC)C(=O)C[C@@H](C(=O)N2CCOCC2)N(C)C(=O)[C@H](C2CCCC2)N(C)C(=O)C2(CCCC2)NC(=O)[C@@H]2CCCN2C(=O)[C@H](CCc2ccc(C(F)(F)F)c(Cl)c2)NC(=O)CN(C)C(=O)[C@H](C2CCCC2)N(C)C(=O)[C@@H]2CCN2C(=O)[C@H](C)N(C)C1=O [Compound 1208] ([NEtLeu]I[NMeA][Aze][NMeGly(cPent)][Sar][hPhe(3-Cl-4-CF3)]P[Ac5c][NMeGly(cPent)][NMeD]-Morpholide; lactam N-11) | 0.69 | ≤ 20
12 | CC[C@H](C)[C@@H]1NC(=O)[C@H](CC(C)C)N(C)C(=O)C[C@@H](C(=O)N2CCCCC2)N(C)C(=O)[C@H](C2CCCCC2)N(C)C(=O)C2(CCCC2)NC(=O)[C@H](CC2CC2)N(C)C(=O)[C@H](CCc2ccc(C(F)(F)F)c(Cl)c2)NC(=O)CN(C)C(=O)[C@H](CC2CCCCC2)N(C)C(=O)CN(C)C(=O)CN(C)C1=O [Compound 200] ([NMeL]I[Sar][Sar][NMeCha][Sar][hPhe(3-Cl-4-CF3)][NMeAla(cPr)][Ac5c][NMeChg][NMeD]-Piperidide; lactam N-11) | 13 | > 500
13 | CC[C@H](C)[C@@H]1NC(=O)[C@H](CC(C)C)N(C)C(=O)C[C@@H](C(=O)N2CCCCC2)N(C)C(=O)[C@H](CC2CC2)N(C)C(=O)C2(CCCC2)NC(=O)[C@@H]2CCCN2C(=O)[C@H](CCc2ccc(C(F)(F)F)c(Cl)c2)NC(=O)CN(C)C(=O)[C@H](CC2CCCCC2)N(C)C(=O)[C@@H]2CCN2C(=O)[C@H](C)N(C)C1=O [Compound 172] ([NMeL]I[NMeA][Aze][NMeCha][Sar][hPhe(3-Cl-4-CF3)]P[Ac5c][NMeAla(cPr)][NMeD]-Piperidide; lactam N-11) | 4 | > 500
14 | CC[C@H](C)[C@@H]1NC(=O)[C@H](CC(C)C)N(C)C(=O)C[C@@H](C(=O)N2CCCCC2)N(C)C(=O)[C@H](C(C)C)N(C)C(=O)[C@H](C(C)C)NC(=O)[C@@H]2CCCN2C(=O)[C@H](CCc2ccc(C(F)(F)F)c(Cl)c2)NC(=O)CN(C)C(=O)[C@H](CC2CCCCC2)N(C)C(=O)[C@@H]2CCN2C(=O)[C@H](C)N(C)C1=O [Compound 741] ([NMeL]I[NMeA][Aze][NMeCha][Sar][hPhe(3-Cl-4-CF3)]PV[NMeV][NMeD]-Piperidide; lactam N-11) | 86 | > 500
15 | CC[C@H](C)[C@@H]1NC(=O)[C@H](C(C)C)N(C)C(=O)C[C@@H](C)NC(=O)[C@H](CC(C)C)N(C)C(=O)C2(CCCC2)NC(=O)[C@H](CC(C)C)N(C)C(=O)[C@H](CCc2ccc(C(F)(F)F)c(Cl)c2)NC(=O)CN(C)C(=O)[C@H](CC2CCCCC2)N(C)C(=O)CN(C)C(=O)CN(C)C1=O [Compound 892] (cyclo([Ac5c][NMeL][d(β3hA)][NMeV]I[Sar][Sar][NMeCha][Sar][hPhe(3-Cl-4-CF3)][NMeL])) | 68 | > 500
16 | CC[C@H](C)[C@@H]1NC(=O)[C@H](COCCC(C)C)N(C)C(=O)C[C@@H](C(=O)N2CCCCC2)N(C)C(=O)[C@H](C(C)C)N(C)C(=O)C2(CCCC2)NC(=O)[C@@H]2CCCN2C(=O)[C@H](CCc2ccc(C(F)(F)F)c(Cl)c2)NC(=O)CN(C)C(=O)[C@H](CC2CCCCC2)N(C)C(=O)[C@@H]2CCN2C(=O)[C@H](C)N(C)C1=O [Compound 661] ([NMeS](Isopentyl)I[NMeA][Aze][NMeCha][Sar][hPhe(3-Cl-4-CF3)]P[Ac5c][NMeV][NMeD]-Piperidide; lactam N-11) | 13 | > 500
